Test results as given in PMC12518639, “Apomorphine is a novel necroptosis inhibitor targeting mixed lineage kinase domain-like protein oligomerization” (Cell Death Discovery, 2025).
Structures can show the parent of a compound that is named as a salt. Where two headings read alike, the source gives them in different places.

How the values were obtained:
[1] = tested on: ulcerative colitis; design: method as in PMID 34389633; details: phase II trial; cited from earlier work
[2] = target: T1, Wt-hMLKL (Homo sapiens, UniProt Q8NB16); test: SPR competition assay of NSA with Ox-APO; assay type: binding; details: 200 μM NSA, 750 μM Ox-APO
T1 construct: purchased Abcam ab241453
T1 sequence (Q8NB16 1-471): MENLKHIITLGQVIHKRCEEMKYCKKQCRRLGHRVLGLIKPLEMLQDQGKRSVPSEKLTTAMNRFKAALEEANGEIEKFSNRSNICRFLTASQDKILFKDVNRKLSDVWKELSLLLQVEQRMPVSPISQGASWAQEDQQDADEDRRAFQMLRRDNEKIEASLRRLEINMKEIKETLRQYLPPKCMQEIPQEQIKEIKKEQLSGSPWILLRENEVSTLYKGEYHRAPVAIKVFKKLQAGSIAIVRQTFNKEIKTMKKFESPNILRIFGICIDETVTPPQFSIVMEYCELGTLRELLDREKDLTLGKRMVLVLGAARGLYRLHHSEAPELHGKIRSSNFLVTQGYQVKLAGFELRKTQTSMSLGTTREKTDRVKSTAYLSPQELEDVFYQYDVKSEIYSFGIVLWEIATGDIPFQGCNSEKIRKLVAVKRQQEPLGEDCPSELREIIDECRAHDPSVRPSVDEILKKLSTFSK
Description: Fig. S4 Competition assay of NSA with Ox-APO by SPR. Wt-hMLKL was immobilized on a CM5 chip and 750 μM Ox-APO was overflowed in the presence or absence of 200 μM NSA.

[3] = tested on: mouse MLKL; design: method as in PMID 28827318; details: cited from earlier work
[4] = tested on: p-MLKL and p-RIP1; test: Western blot of cytosol and membrane fractions; assay type: cell-based, human; details: THP-1, TBZ, 20 μM
Description: (§1) The cells were harvested and lysed in 1× RIPA buffer (R4100-010, GenDEPOT, Katy, TX, USA) containing protease (P3100-001, GenDEPOT) and phosphatase (1862495, Thermo Fisher Scientific) inhibitors. WCLs were then centrifuged at 20,000×g for 30 min at 4 °C and subjected to non-reducing or reducing 8–12% SDS-PAGE gel electrophoresis. The membrane was blocked with 5% non-fat milk in TBS and probed with antibodies. Antibodies to hMLKL (14993S), mMLKL (97705S), phospho-hMLKL (Ser358) (91689S), phospho-mMLKL (Ser345) (37333S), phospho-hRIP1 (Ser166) (65746S), mRIP1 (3493S), phospho-mRIP1 (Ser321) (38662S), phospho-hRIP3 (Ser227) (93654), mRIP3 (95702S), p-mRIP3 (Thr231/Ser232) (91702S), and LDH (2012S) (Cell Signaling Technology, Danvers, MA, USA), and GAPDH (LF-PA0018, Abfrontier, S. Korea), hRIP1 (ab72139, Abcam, Cambridge, UK), hRIP3 (sc-135170, Santa Cruz Biotechnology, Dallas, TX, USA), HMGB1 (ab78923, Abcam), and LAMP1 (ab24170, Abcam) antibodies were used.
Cell membrane fractionation was performed to determine whether MLKL oligomers were retained in the cell membrane fraction. Briefly, THP-1 cells were harvested and resuspended in 20 mM TBS (pH 7.4) containing 10 mM KCl, 1 mM MgCl2, protease inhibitor (P3100-001, GenDEPOT), and phosphatase inhibitor (1862495, Thermo Fisher Scientific). The cell suspension was passed through a 22-gauge needle and centrifuged at 20,000×g for 15 min and stored as the cytoplasmic fraction. The pellet was resuspended in lysis buffer and stored as the crude membrane fraction.
(§2) Fig. S1 Assessment of p-MLKL inhibition to identify MLKL-targeting molecules. (A) Quantification graph corresponding to Fig. 1C. THP-1 cells were treated with TBZ in the presence of secondarily selected compounds (S1–S72, 20 μM). Whole-cell lysates (WCLs) were collected and subjected to Western blot analysis under reducing conditions using antibodies against p-MLKL, MLKL, and GAPDH. The p-MLKL/MLKL ratio was quantified and compared to that of TBZ-treated cells. Data represent the mean of three independent experiments. (B) Quantification graph corresponding to Fig. 1D. THP-1 cells were treated with TBZ in the presence of third-round selected compounds (S1–S62, 20 μM). Cytosolic and membrane fractions were collected and analyzed by Western blot under reducing conditions. The levels of p-MLKL and p-RIP1 were normalized to LDH (cytosolic marker) and LAMP1 (membrane marker), respectively. Quantified ratios were compared to those of TBZ-treated cells (n = 3 independent experiments).

[5] = tested on: THP-1-HMGB1-Lucia cells; test: TBZ-induced necroptosis screening by HMGB1-luciferase release; assay type: cell-based, human; details: 8 h, read-out: % Inhibition (luciferase activity relative to TBZ-treated supernatant); for activity at 20 µM: Homo sapiens
Description: (§3) To identify potential inhibitors of the necroptosis pathway targeting MLKL or the process of p-MLKL pore formation on the membrane, we screened a library of 2150 compounds, including FDA-approved drugs and those in phase 1–3 clinical trials, using THP-1-HMGB1-Lucia™ cells expressing the HMGB1-luciferase fusion protein. The cells were treated with a necroptosis-inducing mixture containing TNF-α, BV6, and Z-VAD-FMK (TBZ) in addition to the compound library (Fig. 1A). The supernatants were harvested to measure luciferase activities for necroptosis. The luciferase activities of cell supernatants treated with TBZ alone were considered as the maximum release (100%) of HMGB1-luciferase. NEC-1, a known RIP1 inhibitor used in both humans and mice, was used as a positive control. […] Next, we performed a propidium iodide (PI) uptake assay to exclude cytotoxic compounds using THP-1 cells. Then, we selected candidate molecules that were arbitrarily less than 30% of those treated with TBZ. […] Next, the inhibition levels of p-MLKL were tested to select MLKL-targeting molecules (Figs. 1C and S1A). Compounds that reduced p-MLKL levels to less than 30% of TBZ-treated controls were considered as potential inhibitors of MLKL phosphorylation. Conversely, compounds that maintained p-MLKL levels above 70% were selected because they are presumed to prevent the formation of pores in the plasma membrane by interfering with oligomerization.
A clinical chemical library containing 2150 items (Korea Chemical Bank, South Korea), under phase 1–3 clinical trials, including FDA-approved drugs, was used to screen for necroptosis inhibitors. Each chemical was dissolved in DMSO and diluted to 20 μM in DPBS for treatment.
THP-1-HMGB1-Lucia^TM cells were pretreated with the pan-caspase inhibitor Z-VAD-FMK (50 μM, tlrl-vad, InvivoGen) and each chemical for 1 h, and followed by TNF-α (100 ng/mL, TNF0501, NKMAXBio, Seongnam, S. Korea) and Smac mimetic BV6 (10 μM, B1332-5, Biovision, Santa Clara, CA, USA), termed TBZ mixture, were added for necroptosis screening. The RIP1 inhibitor, NEC-1 (1846, Biovision), and MLKL inhibitor, NSA (432531-71-0, Sigma-Aldrich, St. Louis, MO, USA), were used as controls. The cell supernatant was harvested to measure HMGB1 levels using a luciferase assay kit (E1500, Promega, Madison, WI, USA) by a luminometer (Centro XS3 LB 960, Berthold Technologies, Bad Wildbad, Germany). The inhibition of necroptosis (%) was calculated as: (sample-treated data – medium-only data) × 100/(TBZ-treated data – medium-only data). APO [STK088477, (6aS)-6-methyl-5,6,6a,7-tetrahydro-4H-dibenzo[de,g]quinoline-10,11-diol, Vitas-M Laboratory, Hong Kong] was stored at −70 °C after aliquoting with DMSO. APO was used after dilution in DPBS. APO is susceptible to auto-oxidation in solution in the presence of light and air. DPBS containing 5 mM DTT was used for Re-APO. Ox-APO was prepared by incubating APO in DPBS at 25 °C for 24 h in the presence of light and air, followed by removal of any precipitate by filtration through 0.2 μm.

[6] = tested on: p-MLKL; test: Western blot of phosphorylated MLKL in whole cell lysates; assay type: cell-based, human; details: Homo sapiens, read-out: p-MLKL/MLKL ratio relative to TBZ-treated cells (% Value)
Description: as §3, §1
as §2, with “THP-1 cells were treated with TBZ in the presence of secondarily selected compounds (S1–S72, 20 μM).” left out, “THP-1 cells were treated with TBZ in the presence of third-round selected compounds (S1–S62, 20 μM).” left out

[7] = 20 μM compound with TBZ, TBZ alone = 100, DPBS = 0
[8] = THP-1, TBZ and 20 μM compound, 8 h, whole cell lysates

| Compound | activity at 20 µM [6, 8] [%] | activity at 20 µM [5, 7] [%] | other results |
| --- | --- | --- | --- |
| CN1C(=O)[C@@H](NC(=O)c2nnc(Cc3ccccc3)[nH]2)COc2ccccc21 [GSK2982772] |  |  | therapeutic benefit [1]: failed to show significant therapeutic benefit; tolerability in humans [1]: well tolerated |
| COc1nccnc1NS(=O)(=O)c1ccc(NC(=O)/C=C/c2ccc([N+](=O)[O-])s2)cc1 [NSA, Necrosulfonamide] |  |  | competition for binding to hMLKL [2]: competed with Ox-APO; activity against mouse MLKL [3]: ineffective |
| CN1CCN(c2ccc(Nc3c4ccccc4nc4ccccc34)cc2)CC1 [S1, JP-1302] |  |  | RIP1 phosphorylation [4]: seemed to inhibit; activity [5, 7]: 0.4% |
| COc1cc2ncnc(Nc3cccc(Cl)c3)c2cc1OC [S3, Tyrphostin] | 70 | 7.5 | effect on p-MLKL levels in both cytosolic and membrane fractions [4]: almost no effect |
| CCCCC1C(=O)N(c2ccccc2)N(c2ccc(O)cc2)C1=O (stereo not shown) [S4, Oxyphenbutazone] | 38 | 0 |  |
| Cc1ccc(Nc2nccc(N(C)c3ccc4c(C)n(C)nc4c3)n2)cc1S(N)(=O)=O [S10, Pazopanib] | 86 | 9.4 |  |
| CC(=O)Oc1ccccc1C(=O)Nc1ncc([N+](=O)[O-])s1 [S15, Nitazoxanide] | 100 | 1.2 | effect on p-MLKL levels in both cytosolic and membrane fractions [4]: almost no effect |
| CC1(C)CC[C@]2(C(=O)O)CC[C@]3(C)[C@H](C(=O)C=C4[C@@]5(C)C=C(C#N)C(=O)C(C)(C)[C@@H]5CC[C@]43C)[C@@H]2C1 [S16, Bardoxolone] | 0 | 0 |  |
| Cc1ccc(C(=O)Nc2ccc(CN3CCN(C)CC3)c(C(F)(F)F)c2)cc1C#Cc1cnc2cccnn12 [S17, Ponatinib] |  |  | activity at 20 µM ([6]; THP-1, 8 h): 2%; activity at 20 µM [5]: 4.5% |
| O=C(Nc1ccc(Br)cc1)c1cccc(S(=O)(=O)Nc2ccc(Br)cc2)c1 [S19, N-(4-Bromophenyl)-3-[[(4-bromophenyl)amino]sulfonyl]benzamide] | 55 | 5.3 |  |
| Cc1ncc(-c2ccnc(Nc3ccc(S(C)(=O)=O)cc3)n2)n1C(C)C [S28, AZD 5438] | 55 | 0 |  |
| CC(C)(C)c1nc(-c2cccc(NS(=O)(=O)c3c(F)cccc3F)c2F)c(-c2ccnc(N)n2)s1 [S31, Dabrafenib] | 0 | 4.5 |  |
| C=C1C(=O)O[C@@H]2/C=C(\C)CC/C=C(\C)CC[C@@H]12 [S35, Costunolide] | 30 | 9 |  |
| C=C1C(=O)O[C@H]2[C@H]1CC/C(C)=C/CC[C@@]1(C)O[C@@H]21 [S38, Parthenolide] | 40 | 0 |  |
| COc1cc2nccc(Oc3ccc(NC(=O)Nc4cc(C)on4)c(Cl)c3)c2cc1OC [S46, Tivozanib] | 18 | 9 |  |
| O=C1c2c(O)ccc(O)c2C(=O)c2c(NCCNCCO)ccc(NCCNCCO)c21 [S58, Mitoxantrone hydrochloride] | 39 | 7.6 |  |
| O=C(N[C@H](CO)[C@H](O)c1ccc([N+](=O)[O-])cc1)C(Cl)Cl [S69, Chloramphenicol] |  | 0 |  |
| CN(C)CCOC(c1ccccc1)c1ccccc1 [S70, Diphenhydramine] |  | 19.1 |  |
| CCCc1c(-c2ccc(O)cc2)nn(-c2ccc(O)cc2)c1-c1ccc(O)cc1 [S71, PPT] |  |  | activity [5, 7]: 1.5% |
| O=C(Nc1ccc([N+](=O)[O-])cc1Cl)c1cc(Cl)ccc1O [S72, Niclosamide] | 35 | 0.9 |  |
| JTE 013 [S11] |  |  | activity [5, 7]: 5.8% |
